# Reference: ChEMBL document CHEMBL5131391, “One-pot three-component synthesis of novel pyrazolo[3,4-b]pyridines as potent antileukemic agents” (Eur J Med Chem, 2022)
# Assays:
# Assay type in all cases: functional
# DU-145 = test: Antiproliferative activity against human DU-145 cells assessed as growth inhibition at 10 uM measured after 48 hrs by NCI protocol based SRB assay relative to control; settings: read-out: GI
# EKVX = test: Antiproliferative activity against human EKVX cells assessed as growth inhibition at 10 uM measured after 48 hrs by NCI protocol based SRB assay relative to control; settings: read-out: GI
# MOLT-4 = test: Antiproliferative activity against human MOLT-4 cells assessed as growth inhibition at 10 uM measured after 48 hrs by NCI protocol based SRB assay relative to control; settings: read-out: GI
# HCT-116 = test: Antiproliferative activity against human HCT-116 cells assessed as growth inhibition at 10 uM measured after 48 hrs by NCI protocol based SRB assay relative to control; settings: read-out: GI
# TK-10 = test: Antiproliferative activity against human TK-10 cells assessed as growth inhibition at 10 uM measured after 48 hrs by NCI protocol based SRB assay relative to control; settings: read-out: GI
# SN12C = test: Antiproliferative activity against human SN12C cells assessed as growth inhibition at 10 uM measured after 48 hrs by NCI protocol based SRB assay relative to control; settings: read-out: GI
# OVCAR-8 = test: Antiproliferative activity against human OVCAR-8 cells assessed as growth inhibition at 10 uM measured after 48 hrs by NCI protocol based SRB assay relative to control; settings: read-out: GI
# K562 [1] = test: Antiproliferative activity against human K562 cells assessed as reduction in cell viability incubated for 72 hrs by resazurin dye based assay; settings: K562, 72 h
# SF-295 = test: Antiproliferative activity against human SF-295 cells assessed as growth inhibition at 10 uM measured after 48 hrs by NCI protocol based SRB assay relative to control; settings: read-out: GI
# COLO 205 = test: Antiproliferative activity against human COLO 205 cells assessed as growth inhibition at 10 uM measured after 48 hrs by NCI protocol based SRB assay relative to control; settings: read-out: GI
# HL-60(TB) = test: Antiproliferative activity against human HL-60(TB) cells assessed as growth inhibition at 10 uM measured after 48 hrs by NCI protocol based SRB assay relative to control; settings: read-out: GI
# OVCAR-3 = test: Antiproliferative activity against human OVCAR-3 cells assessed as growth inhibition at 10 uM measured after 48 hrs by NCI protocol based SRB assay relative to control; settings: read-out: GI
# U-251 = test: Antiproliferative activity against human U-251 cells assessed as growth inhibition at 10 uM measured after 48 hrs by NCI protocol based SRB assay relative to control; settings: read-out: GI
# HCT-15 = test: Antiproliferative activity against human HCT-15 cells assessed as growth inhibition at 10 uM measured after 48 hrs by NCI protocol based SRB assay relative to control; settings: read-out: GI
# MDA-MB-468 = test: Antiproliferative activity against human MDA-MB-468 cells assessed as growth inhibition at 10 uM measured after 48 hrs by NCI protocol based SRB assay relative to control; settings: read-out: GI
# NCI-H226 = test: Antiproliferative activity against human NCI-H226 cells assessed as growth inhibition at 10 uM measured after 48 hrs by NCI protocol based SRB assay relative to control; settings: read-out: GI
# HOP-92 = test: Antiproliferative activity against human HOP-92 cells assessed as growth inhibition at 10 uM measured after 48 hrs by NCI protocol based SRB assay relative to control; settings: read-out: GI
# HOP-62 = test: Antiproliferative activity against human HOP-62 cells assessed as growth inhibition at 10 uM measured after 48 hrs by NCI protocol based SRB assay relative to control; settings: read-out: GI
# M14 = test: Antiproliferative activity against human M14 cells assessed as growth inhibition at 10 uM measured after 48 hrs by NCI protocol based SRB assay relative to control; settings: read-out: GI
# NCI-H460 = test: Antiproliferative activity against human NCI-H460 cells assessed as growth inhibition at 10 uM measured after 48 hrs by NCI protocol based SRB assay relative to control; settings: read-out: GI
# CCRF-CEM [2] = test: Antiproliferative activity against human CCRF-CEM cells assessed as growth inhibition at 10 uM measured after 48 hrs by NCI protocol based SRB assay relative to control; settings: read-out: GI
# CAKI-1 = test: Antiproliferative activity against human CAKI-1 cells assessed as growth inhibition at 10 uM measured after 48 hrs by NCI protocol based SRB assay relative to control; settings: read-out: GI
# A498 = test: Antiproliferative activity against human A498 cells assessed as growth inhibition at 10 uM measured after 48 hrs by NCI protocol based SRB assay relative to control; settings: read-out: GI
# BT-549 = test: Antiproliferative activity against human BT-549 cells assessed as growth inhibition at 10 uM measured after 48 hrs by NCI protocol based SRB assay relative to control; settings: read-out: GI
# 786-0 = test: Antiproliferative activity against human 786-0 cells assessed as growth inhibition at 10 uM measured after 48 hrs by NCI protocol based SRB assay relative to control; settings: read-out: GI
# UACC-62 = test: Antiproliferative activity against human UACC-62 cells assessed as growth inhibition at 10 uM measured after 48 hrs by NCI protocol based SRB assay relative to control; settings: read-out: GI
# RXF 393 = test: Antiproliferative activity against human RXF 393 cells assessed as growth inhibition at 10 uM measured after 48 hrs by NCI protocol based SRB assay relative to control; settings: read-out: GI
# SW-620 = test: Antiproliferative activity against human SW-620 cells assessed as growth inhibition at 10 uM measured after 48 hrs by NCI protocol based SRB assay relative to control; settings: read-out: GI
# A549 = test: Antiproliferative activity against human A549 cells assessed as growth inhibition at 10 uM measured after 48 hrs by NCI protocol based SRB assay relative to control; settings: read-out: GI
# SNB-19 = test: Antiproliferative activity against human SNB-19 cells assessed as growth inhibition at 10 uM measured after 48 hrs by NCI protocol based SRB assay relative to control; settings: read-out: GI
# SK-MEL-28 = test: Antiproliferative activity against human SK-MEL-28 cells assessed as growth inhibition at 10 uM measured after 48 hrs by NCI protocol based SRB assay relative to control; settings: read-out: GI
# K562 [3] = test: Antiproliferative activity against human K562 cells assessed as growth inhibition at 10 uM measured after 48 hrs by NCI protocol based SRB assay relative to control; settings: read-out: GI
# PC-3 = test: Antiproliferative activity against human PC-3 cells assessed as growth inhibition at 10 uM measured after 48 hrs by NCI protocol based SRB assay relative to control; settings: read-out: GI
# T47D = test: Antiproliferative activity against human T47D cells assessed as growth inhibition at 10 uM measured after 48 hrs by NCI protocol based SRB assay relative to control; settings: read-out: GI
# Malme-3M = test: Antiproliferative activity against human Malme-3M cells assessed as growth inhibition at 10 uM measured after 48 hrs by NCI protocol based SRB assay relative to control; settings: read-out: GI
# CCRF-CEM [4] = test: Antiproliferative activity against human CEM cells assessed as reduction in cell viability incubated for 72 hrs by resazurin dye based assay
# UACC-257 = test: Antiproliferative activity against human UACC-257 cells assessed as growth inhibition at 10 uM measured after 48 hrs by NCI protocol based SRB assay relative to control; settings: read-out: GI
SMILES,inhibition of growth at 10 µM (DU-145),inhibition of growth at 10 µM (EKVX),inhibition of growth at 10 µM (HCT-116),inhibition of growth at 10 µM (TK-10),inhibition of growth at 10 µM (SN12C),inhibition of growth at 10 µM (OVCAR-8),IC50 (K562 [1]),inhibition of growth at 10 µM (COLO 205),inhibition of growth at 10 µM (OVCAR-3),inhibition of growth at 10 µM (U-251),inhibition of growth at 10 µM (HCT-15),inhibition of growth at 10 µM (NCI-H226),inhibition of growth at 10 µM (HOP-92),inhibition of growth at 10 µM (HOP-62),inhibition of growth at 10 µM (M14),inhibition of growth at 10 µM (NCI-H460),inhibition of growth at 10 µM (CCRF-CEM [2]),inhibition of growth at 10 µM (CAKI-1),inhibition of growth at 10 µM (786-0),inhibition of growth at 10 µM (UACC-62),other results
Cc1ccc(-c2nc3c(c(-c4ccccc4)nn3-c3ccccc3)c(-c3ccc(O)cc3)c2C#N)cc1,40%,26%,58%,62%,47%,31%,8.8 µM,30%,36%,59%,72%,21%,26%,60%,40%,73%,61%,50%,82%,37%,inhibition of growth at 10 µM (MOLT-4): 60%; inhibition of growth at 10 µM (SF-295): 120%; inhibition of growth at 10 µM (HL-60(TB)): 68%; inhibition of growth at 10 µM (MDA-MB-468): 48%; inhibition of growth at 10 µM (A498): 56%; inhibition of growth at 10 µM (BT-549): 24%; inhibition of growth at 10 µM (RXF 393): 110%; inhibition of growth at 10 µM (SW-620): 38%; inhibition of growth at 10 µM (A549): 48%; inhibition of growth at 10 µM (SNB-19): 31%; inhibition of growth at 10 µM (SK-MEL-28): 33%; inhibition of growth at 10 µM (K562 [3]): 78%; inhibition of growth at 10 µM (PC-3): 66%; inhibition of growth at 10 µM (T47D): 39%; inhibition of growth at 10 µM (Malme-3M): 25%; IC50 (CCRF-CEM [4]): 13.4 µM
N#Cc1c(-c2ccc(Cl)cc2)nc2c(c(-c3ccccc3)nn2-c2ccccc2)c1-c1ccc(O)cc1,50%,33%,86%,83%,118%,51%,20.8 µM,48%,52%,67%,73%,35%,44%,51%,62%,75%,73%,60%,83%,47%,inhibition of growth at 10 µM (MOLT-4): 76%; inhibition of growth at 10 µM (SF-295): 99%; inhibition of growth at 10 µM (HL-60(TB)): 68%; inhibition of growth at 10 µM (MDA-MB-468): 69%; inhibition of growth at 10 µM (A498): 21%; inhibition of growth at 10 µM (BT-549): 38%; inhibition of growth at 10 µM (UACC-257): 15%; inhibition of growth at 10 µM (RXF 393): 127%; inhibition of growth at 10 µM (SW-620): 46%; inhibition of growth at 10 µM (A549): 59%; inhibition of growth at 10 µM (SNB-19): 35%; inhibition of growth at 10 µM (SK-MEL-28): 44%; inhibition of growth at 10 µM (K562 [3]): 92%; inhibition of growth at 10 µM (PC-3): 89%; inhibition of growth at 10 µM (T47D): 45%; inhibition of growth at 10 µM (Malme-3M): 39%; IC50 (CCRF-CEM [4]): 43.1 µM
COc1cc(-c2c(C#N)c(-c3ccccc3)nc3c2c(-c2ccccc2)nn3-c2ccccc2)ccc1O,25%,18%,45%,42%,32%,28%,> 50 µM,23%,23%,31%,30%,24%,22%,15%,19%,38%,31%,37%,24%,12%,inhibition of growth at 10 µM (MDA-MB-468): 38%; inhibition of growth at 10 µM (RXF 393): 42%; inhibition of growth at 10 µM (SW-620): 22%; inhibition of growth at 10 µM (A549): 48%; inhibition of growth at 10 µM (SNB-19): 24%; inhibition of growth at 10 µM (SK-MEL-28): 19%; inhibition of growth at 10 µM (PC-3): 49%; inhibition of growth at 10 µM (T47D): 39%; inhibition of growth at 10 µM (Malme-3M): 43%; IC50 (CCRF-CEM [4]): > 50 µM
N#Cc1c(-c2ccccc2)nc2c(c(-c3ccccc3)nn2-c2ccccc2)c1-c1ccc(O)cc1,51%,55%,66%,79%,39%,45%,9.6 µM,59%,46%,76%,66%,46%,50%,75%,44%,91%,78%,48%,97%,39%,inhibition of growth at 10 µM (SF-295): 143%; inhibition of growth at 10 µM (MDA-MB-468): 62%; inhibition of growth at 10 µM (A498): 101%; inhibition of growth at 10 µM (BT-549): 41%; inhibition of growth at 10 µM (UACC-257): 29%; inhibition of growth at 10 µM (RXF 393): 117%; inhibition of growth at 10 µM (SW-620): 84%; inhibition of growth at 10 µM (A549): 59%; inhibition of growth at 10 µM (SNB-19): 61%; inhibition of growth at 10 µM (SK-MEL-28): 51%; inhibition of growth at 10 µM (PC-3): 96%; inhibition of growth at 10 µM (T47D): 65%; inhibition of growth at 10 µM (Malme-3M): 57%; IC50 (CCRF-CEM [4]): 33.4 µM
N#Cc1c(-c2ccco2)nc2c(c(-c3ccccc3)nn2-c2ccccc2)c1-c1ccc(O)cc1,25%,44%,64%,11%,18%,45%,4.2 µM,97%,14%,39%,62%,27%,24%,149%,35%,51%,59%,42%,41%,11%,inhibition of growth at 10 µM (MOLT-4): 91%; inhibition of growth at 10 µM (SF-295): 34%; inhibition of growth at 10 µM (HL-60(TB)): 78%; inhibition of growth at 10 µM (BT-549): 36%; inhibition of growth at 10 µM (UACC-257): 40%; inhibition of growth at 10 µM (SW-620): 53%; inhibition of growth at 10 µM (A549): 54%; inhibition of growth at 10 µM (SK-MEL-28): 24%; inhibition of growth at 10 µM (K562 [3]): 85%; inhibition of growth at 10 µM (PC-3): 77%; inhibition of growth at 10 µM (T47D): 82%; inhibition of growth at 10 µM (Malme-3M): 66%; IC50 (CCRF-CEM [4]): 23.9 µM
